For experiment [1], the system named is skin fibroblast cell line BJ. In words: Toxicity to non-tumor fibroblasts BJ. The experiment is classed as cell-based, human. The conditions noted are these: Homo sapiens, Skin fibroblast. As for the experimental part: (§1) Finally, the amino‐BODIPY 16 and all prepared conjugates 1–15 were tested for cytotoxic activity against selected cancer cell lines (Table 1). The tests were performed on cancer cell lines derived from solid tumors as well as hematological malignancies: CCRF‐CEM (acute lymphoblastic leukemia), K562 (chronic myeloid leukemia), A549 (lung adenocarcinoma), colorectal carcinoma cell lines HCT116 with and without functional p53 protein HCT116p53, respectively. The panel also included chemoresistant subclone CCRF‐CEM‐DNR (resistant to daunorubicine) overexpressing P‐glycoprotein and/or lung resistance‐related protein (LRP), which are pumps or detoxifying systems responsible for the most common forms of clinical resistance. To evaluate non‐tumor cells′ toxicity, we used human skin fibroblast cell line BJ and lung fibroblast cell line MRC‐5. […] This dye is also slightly toxic to normal fibroblast BJ and MRC with IC50>40 μM and low‐density seeding variants BJ‐LD and MRC‐LD with higher proliferation and no contact inhibition. Connection of amino‐BODIPY 16 with 3‐HQs via non‐cleavable maleimide linker (conjugates 6–10) as well as via cleavable linker (compounds 11–15) causes higher selectivity toward CCRF‐CEM lines. […] The selectivity of conjugates toward leukemia cells could be caused by interaction with a specific target for the CCRF‐CEM or K562 cells, respectively, or by particular transport to these cell lines. The later reason could explain the lower toxicity of amino‐BODIPY released from the conjugate compared to free amino‐BODIPY 16 directly applied to the cells.

Experiment [2] has as its system MRC‐LD (low‐density seeding variant). In words: Toxicity to non-tumor fibroblasts MRC-LD. Format: cell-based. The conditions noted are these: Homo sapiens, Fibroblast, higher proliferation, no contact inhibition. How it is done: as §1
The test system of experiment [3] is HCT116p53 (colorectal carcinoma). In words: Cytotoxic activity against HCT116p53. Format: cell-based. The conditions noted are these: average of at least three independent experiments. As for the experimental part:
as §1

Experiment [4] concerns A549 (lung adenocarcinoma). In words: Cytotoxic activity against A549. Format: cell-based. The conditions noted are these: Homo sapiens, average of at least three independent experiments. As for the experimental part:
as §1

The subject of experiment [5] is lung fibroblast cell line MRC‐5. In words: Toxicity to non-tumor fibroblasts MRC. The conditions noted are these: Homo sapiens, MRC5, non-tumor lung fibroblasts. The experiment is classed as cell-based, human. How it is done: as §1
Experiment [6] concerns CCRF‐CEM‐DNR (resistant to daunorubicine). In words: Cytotoxic activity against CEM-DNR. Format: cell-based. The conditions noted are these: Homo sapiens, daunorubicine-resistant subclone, average of at least three independent experiments. As for the experimental part:
as §1

Experiment [7] has as its system CCRF‐CEM (acute lymphoblastic leukemia). In words: Cytotoxic activity against CCRF-CEM. The conditions noted are these: Homo sapiens, average of at least three independent experiments. Format: cell-based. As for the experimental part: as §1
Experiment [8] concerns K562 (chronic myeloid leukemia). In words: Cytotoxic activity against K562. The experiment is classed as cell-based. The conditions noted are these: Homo sapiens, average of at least three independent experiments. As for the experimental part: as §1
Experiment [9] has as its system BJ‐LD (low‐density seeding variant). In words: Toxicity to non-tumor fibroblasts BJ-LD. Format: cell-based. The conditions noted are these: Homo sapiens, Fibroblast, higher proliferation, no contact inhibition. As for the experimental part: as §1
Another experiment deals with U2OS. In words: Cytotoxic activity against U2OS. Format: cell-based. The conditions noted are these: Homo sapiens, average of at least three independent experiments.
Experiment [10] concerns HCT116 (colorectal carcinoma). In words: Cytotoxic activity against HCT116. Format: cell-based. The conditions noted are these: Homo sapiens, HCT-116; average of at least three independent experiments. How it is done:
as §1

The next experiment relates to K562‐TAX. In words: Cytotoxic activity against K562-TAX. The experiment is classed as cell-based. The conditions noted are these: average of at least three independent experiments.

The term IC50 denotes the concentration at which inhibition is half-maximal.

Molecules are shown by their SMILES.

Turning to `Cc1cc(C)n2c1C=C1C=CC(NC(=O)OCCSSCC(NC(=O)c3ccc4c(=O)c(O)c(-c5cc(Cl)c(N)c(Cl)c5)[nH]c4c3)C(N)=O)=[N+]1[B-]2(F)F` (stereo not shown) [Compound 13], the concentration for half-maximal inhibition (IC50) in [1] is over 50 µM; in experiment [2] it was over 50 µM; in [3], over 50 µM; in experiment [4], over 50 µM; in experiment [5], over 50 µM; in experiment [6], 40.1 µM. In addition, the half-inhibitory concentration (IC50) in experiment [7] is 2.59 µM; in experiment [8], 41.4 µM; in experiment [9], over 50 µM; in the experiment with U2OS it was over 50 µM; in experiment [10], over 50 µM; in the experiment on K562‐TAX, 41.8 µM.
Turning to `Cc1cc(C)n2c1C=C1C=CC(NC(=O)OCCCN3C(=O)CC(SCC(NC(=O)c4ccc5c(=O)c(O)c(-c6cc(Cl)c(N)c(Cl)c6)[nH]c5c4)C(N)=O)C3=O)=[N+]1[B-]2(F)F` (stereo not shown) [Compound 8], the IC50 in experiment [1], in experiment [2], in experiment [3], in experiment [4], in [5] and in experiment [6] was over 50 µM throughout. Further, the IC50 is 12.7 µM in [7]; over 50 µM in [8]; over 50 µM in experiment [9]; over 50 µM in the experiment on U2OS; over 50 µM in experiment [10]; over 50 µM in the experiment with K562‐TAX.
As to `Cc1cc(C)n2c1C=C1C=CC(NC(=O)OCCSSCC(NC(=O)c3ccc4c(=O)c(O)c(-c5ccc(N6CCCCC6)c([N+](=O)[O-])c5)[nH]c4c3)C(N)=O)=[N+]1[B-]2(F)F` (stereo not shown) [Compound 14], the IC50 was over 50 µM in experiment [1]; over 50 µM in experiment [2]; 42.6 µM in [3]; 46.3 µM in experiment [4]; over 50 µM in [5]; 37.9 µM in [6]. In addition, the IC50 in experiment [7] was 1.52 µM; in experiment [8], 29.9 µM; in [9] it was over 50 µM; in the experiment with U2OS, 44.1 µM; in experiment [10], 39.7 µM; in the experiment on K562‐TAX, 40.6 µM.
Turning to `Cc1cc(C)n2c1C=C1C=CC(NC(=O)OCCSSCC(NC(=O)c3ccc4c(=O)c(O)c(-c5ccc(F)cc5)[nH]c4c3)C(N)=O)=[N+]1[B-]2(F)F` (stereo not shown) [Compound 12], the IC50 in [1] is over 50 µM; in experiment [2] it was over 50 µM; in experiment [3], 49.8 µM; in experiment [4], 46.4 µM; in experiment [5] it was over 50 µM; in [6], 26.5 µM. For the same compound, the IC50 in experiment [7] is 8.14 µM; in experiment [8], 44.6 µM; in experiment [9], over 50 µM; in the experiment on U2OS it was 42.3 µM; in experiment [10], over 50 µM; in the experiment on K562‐TAX it was 33.6 µM.
With `Cc1cc(C)n2c1C=C1C=CC(NC(=O)OCCCN3C(=O)CC(SCC(NC(=O)c4ccc5c(=O)c(O)c(-c6ccc(N7CCCCC7)c([N+](=O)[O-])c6)[nH]c5c4)C(N)=O)C3=O)=[N+]1[B-]2(F)F` (stereo not shown) [Compound 9], the IC50 in experiment [1], in experiment [3], in [4], in [5], in experiment [6] and in [7] was over 50 µM each time. Further, the IC50 in [8] was 4.05 µM; in the experiment on U2OS it was over 50 µM; in [10], over 50 µM; with K562‐TAX, over 50 µM.
For `Cc1cc(C)n2c1C=C1C=CC(NC(=O)OCCCN3C(=O)CC(SCC(NC(=O)c4ccc5c(=O)c(O)c(-c6ccc(N7CCCCC7)c(C(N)=O)c6)[nH]c5c4)C(N)=O)C3=O)=[N+]1[B-]2(F)F` (stereo not shown) [Compound 10], the IC50 in [1], in experiment [2], in experiment [3], in experiment [4], in experiment [5] and in experiment [6] was over 50 µM throughout. Also, the concentration for half-maximal inhibition (IC50) in experiment [7] was 5.1 µM; in experiment [8] it was over 50 µM; in experiment [9], over 50 µM; with U2OS, over 50 µM; in experiment [10], over 50 µM; with K562‐TAX it was 49.6 µM.

(Values after publication PMC8562313, “Cytotoxicity of Amino‐BODIPY Modulated via Conjugation with 2‐Phenyl‐3‐Hydroxy‐4(1H)‐Quinolinones” (ChemistryOpen, 2021).)
